# Reference: patent US20090137493A1, “Inhibition of tumor metastases using protein kinase C (PKC) inhibitors” (priority 2007, published 2009)
# Bridges are numbered along the chain shown (N, C = ends). Where no end group is shown, it is not given here.
# Legend:
# [1] = test system: MDA-MB-231 breast cancer cells; experiment: Cell migration/invasion assay through a HUVEC monolayer, MDA-MB-231; assay type: cell-based, human; conditions: peptide 10 μM, re-applied every 2 hours for 10 hours
# Source text: (§1) FIGS. 14A and 14B are bar graphs showing the efficacy of TAT carrier peptide (TAT), αV5-3-TAT peptide (Alpha), βIIV5-3 peptide (Beta-2), and εV1-2 (Epsilon) in inhibiting the invasion of human MDA-MB-231 and MCF-7 breast cancer cells through a HUVEC monolayer. FIGS. 14C and 14D are bar graphs showing the efficacy of TAT carrier peptide (TAT) or αV5-3-TAT peptide in inhibiting the invasion of 4T1 (FIG. 11C) and MDA-MB-231 (FIG. 11D) cells.
# as §1, with “14B show the results of a related experiment measuring” for “14B are bar graphs showing”, “εV1-2 peptide” for “εV1-2”, “14D show the results of a similar experiment” for “14D are bar graphs”
# Cell Migration/invasion assay: Primary human endothelial cells (HUVEC's) were plated on top of a matrigel plug in trans-well plates. Once the cells had reached confluence (as determined by examination of a control well), 1×10^6 human breast cancer cells (MCF-7 or MDA-MB-231) expressing luciferase were added above the HUVEC cell layer. Where applicable, peptides were added to a final concentration of 10 μM and re-applied every 2 hours for 10 hours followed by further incubation. After 24-48 hours-incubation the HUVEC cell layer (and all other cells above the matrigel) were removed by scraping of the cell layer into the media and aspiration (repeated 3 times). The relative numbers of cancer cells that had crossed the HUVEC cell layer and entered the matrigel was then determined by bioluminescence detection of luciferase action following addition of luciferin substrate.
# [2] = test system: MCF-7 breast cancer cells; experiment: Cell migration/invasion assay through a HUVEC monolayer, MCF-7; assay type: cell-based, human; conditions: peptide 10 μM, re-applied every 2 hours for 10 hours
# Source text: as §1
# FIGS. 14A and 14B show the results of a related experiment measuring the efficacy of TAT carrier peptide (TAT), αV5-3-TAT peptide (Alpha), βIIV5-3 peptide (Beta-2), and εV1-2 peptide (Epsilon) in inhibiting the invasion of human MDA-MB-231 and MCF-7 breast cancer cells through a HUVEC monolayer. […]
# Cell Migration/invasion assay: Primary human endothelial cells (HUVEC's) were plated on top of a matrigel plug in trans-well plates. Once the cells had reached confluence (as determined by examination of a control well), 1×10^6 human breast cancer cells (MCF-7 or MDA-MB-231) expressing luciferase were added above the HUVEC cell layer. […] The relative numbers of cancer cells that had crossed the HUVEC cell layer and entered the matrigel was then determined by bioluminescence detection of luciferase action following addition of luciferin substrate.
# [3] = test system: MCF-7 breast cancer cells; experiment: Wound healing (migration) assay, MCF-7; assay type: cell-based, human; conditions: peptide 1 uM, re-applied every 2 h for 8 h
# Protocol: FIGS. 13A-13D are micrographs showing the efficacy of TAT carrier peptide (TAT; FIG. 13A), αV5-3-TAT peptide (Alpha; FIG. 13B), βIIV5-3 peptide (Beta2; FIG. 13C), and εV1-2 (epsilon; FIG. 13D) on human MCF-7 breast cancer cell migration.
# (§2) To investigate the role of PKC inhibitors in reducing the migration of tumor cells, in vitro migration assays were performed using MDA-MB-231 breast cancer cells (FIGS. 12A-12D), MCF-7 breast cancer cell (FIGS. 13A-13D), JC cells (FIGS. 15A-15D), and 4T1 cells (FIGS. 16A-16D), in the presence of TAT carrier peptide (TAT), αV5-3-TAT peptide (Alpha), βIIV5-3 peptide (Beta2), or εV1-2 peptide (Epsilon).
# (§3) Wound healing assay: Human or mouse breast cancer cell lines were grown in 6-well plates until about 90% confluent. Cells were then grown in serum free media overnight, before media was changed to media +1% FBS and peptide PKC inhibitors added (1 uM), at the same time a pipette tip was drawn across the cell layer to create a scrape ‘wound’. PKC inhibitors were re-applied every 2 h for a total of 8 h, before cells were left for a further 12 h and then the scrape was examined under phase contrast microscopy.
# JC cells = experiment: Wound healing (migration) assay, JC; assay type: cell-based, mouse; conditions: peptide 1 uM, re-applied every 2 h for 8 h
# Protocol: FIGS. 15A-15D are micrographs showing the efficacy of TAT carrier peptide (TAT; FIG. 15A), αV5-3-TAT peptide (Alpha; FIG. 15B), βIIV5-3 peptide (Beta2; FIG. 15C), and εV1-2 (Epsilon; FIG. 15D) on JC cell migration.
# as §2, §3
# [4] = test system: MDA-MB-231 breast cancer cells; experiment: Wound healing (migration) assay, MDA-MB-231; assay type: cell-based, human; conditions: peptide 1 uM, re-applied every 2 h for 8 h
# Protocol: FIGS. 12A-12D are micrographs showing the efficacy of TAT carrier peptide (TAT; FIG. 12A), αV5-3-TAT peptide (Alpha; FIG. 12B), βIIV5-3 peptide (Beta2; FIG. 12C), and εV1-2 (Epsilon; FIG. 12D) on human MDA-MB-231 breast cancer cell migration.
# as §2, §3
# βIIPKC = target: T1, βIIPKC (Mus musculus, UniProt P68404); experiment: Translocation of βIIPKC in tumor cells (immunoblot of cytosol and particulate fractions); assay type: in vivo; conditions: FIG. 5B
# T1 construct: endogenous in cells; host or cells: 4T1 murine mammary tumour cells grown as tumours in Balb/c mice
# Protocol: FIGS. 5A-5B are bar graphs showing the percentage of translocation of αPKC (FIG. 5A) and βIIPKC (FIG. 5B) […] in tumor cells treated with αV5-3-TAT peptide.
# To further characterize inhibition of metastasis using the α and βIIPKC inhibitors, the percentage of translocation of αPKC (FIG. 5A) and βIIPKC (FIG. 5B), […] was measured.
# 4T1 tumor cells = experiment: Growth of primary tumors in vivo (number of tumor cells at primary site of injection); design: species or system mice; conditions: animals injected with 4T1 tumor cells, FIG. 6A, versus saline
# Protocol: FIG. 6A is a bar graph showing the affect of saline, the αV5-3-TAT conjugate peptide (αPKC), or the βIIV5-3-TAT conjugate peptide (βPKC) on the growth rate of primary tumors in vivo.
# To determine if the effects observed with the α and βIIPKC peptide inhibitors was due to a decrease in metastasis as opposed to a decrease in primary tumor growth, animals injected with 4T1 tumor cells were treated with saline, the αV5-3-TAT conjugate peptide (αPKC), or the βIIV5-3-TAT conjugate peptide (βPKC) and the number of tumors cells at the primary site of injection were determined.
# [5] = test system: 4T1 murine mammary cancer cells; experiment: Lung metastasis of luciferase-tagged 4T1 tumors in mice, imaging (relative light units); assay type: in vivo; conditions: 4T1-luciferase tumor-bearing mice, osmotic pump, about 35 mg/kg/day, four weeks
# Protocol: To determine whether specific PKC inhibitors could reduce the amount of PKC translocation/activation in vivo and thereby reduce tumor cell metastasis, animals were administered an αPKC peptide inhibitor, or appropriate control, via an implanted osmotic pump, following the injection of luciferase-tagged tumor cells. […] The data are summarized in the bar graph shown in FIG. 4, along with similar data relating to the use of a βIIV5-3-TAT conjugate peptide (βPKC; SEQ ID NO: 27). The extent of lung metastasis is expressed as relative light units.
# Balb/c female mice (6 weeks old) were injected semi-orthotopically with 4T1 murine mammary cancer cells tagged with luciferase ([…] cells/100 μL). One week later, an osmotic minipump was implanted subcutaneously in each animal, for delivery of saline (control), TAT peptide (control, YGRKKRRQRRR, SEQ ID NO: 25), the peptide inhibitor αV5-3 (QLVIAN, SEQ ID NO: 6) attached via an N-terminal disulfide bond to TAT peptide (YGRKKRRQRRR-CC-QLVIAN, SEQ ID NO: 26).
# In other experiments, the peptide inhibitor βIIV5-3 (QEVIAN, SEQ ID NO: 13) or εV1-2 (EAVSLKPT, SEQ ID NO: 20) is attached via an N-terminal disulfide bond to the TAT peptide (SEQ ID NOs: 27 and 28, respectively). The TAT control, αV5-3-TAT, βIIV5-3-TAT, or εV1-2-TAT conjugate peptides are administered at about 35 mg/kg/day for two and four weeks.
# After two weeks of treatment with αV5-3-TAT, some animals were selected form imaging (IVIS® 29, Xenogen Corporation, Alameda, Calif.) and analysis, with the remaining animals imaged after four weeks of treatment.
# FIG. 4 is a bar graph showing the extent of lung metastasis, expressed as relative light units (based on imaging as exemplified in FIG. 3), in tumor-bearing mice treated for four weeks with saline, the αV5-3-TAT conjugate peptide (αPKC), or the βIIV5-3-TAT conjugate peptide (βPKC). The extent of lung metastasis, quantified approximately by the relative light units, for mice treated with saline, the αPKC inhibitor, and the βIIV5-3 PKC inhibitor peptide is shown. The extent of lung metastases is reduced in the animals treated with the αPKC inhibitor.
# T1 sequence (P68404 1-673 isoform P68404-2): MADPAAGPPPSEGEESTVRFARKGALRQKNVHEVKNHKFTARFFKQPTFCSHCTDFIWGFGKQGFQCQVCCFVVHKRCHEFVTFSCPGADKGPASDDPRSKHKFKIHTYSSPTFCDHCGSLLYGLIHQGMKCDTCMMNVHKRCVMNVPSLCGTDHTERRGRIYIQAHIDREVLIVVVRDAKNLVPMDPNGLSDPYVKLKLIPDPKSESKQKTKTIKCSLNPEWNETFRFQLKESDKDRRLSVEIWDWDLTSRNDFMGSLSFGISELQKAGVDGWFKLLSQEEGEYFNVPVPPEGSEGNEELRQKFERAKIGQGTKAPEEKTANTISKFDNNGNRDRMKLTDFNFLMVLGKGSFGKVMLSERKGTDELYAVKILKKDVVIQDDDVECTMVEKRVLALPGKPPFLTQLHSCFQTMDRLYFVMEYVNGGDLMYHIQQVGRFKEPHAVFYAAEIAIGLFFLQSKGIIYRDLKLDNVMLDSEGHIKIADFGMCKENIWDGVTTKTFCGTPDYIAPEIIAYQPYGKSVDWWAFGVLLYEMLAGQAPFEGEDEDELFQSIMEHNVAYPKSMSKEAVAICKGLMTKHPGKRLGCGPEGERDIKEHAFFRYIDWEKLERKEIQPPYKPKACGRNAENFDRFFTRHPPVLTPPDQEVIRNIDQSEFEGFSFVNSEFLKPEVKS
substance,measurement,setting,value
YGRKKRRQRRR-CC-EAVSLKPT (YGRKKRRQRRRCCEAVSLKPT; disulfide 12-13 (inferred)) [εV1-2-TAT],invasion of MDA-MB-231 cells through a HUVEC monolayer,[1],reduce invasion
same,invasion of MCF-7 cells through a HUVEC monolayer,[2],reduce invasion
"YGRKKRRQRRR-CC-CGRNAE (YGRKKRRQRRRCCCGRNAE; disulfide (positions not given here); also: TAT conjugated via disulfide, Cys pair not given here) [βIIV5-3-TAT]",invasion of MDA-MB-231 cells through a HUVEC monolayer,[1],reduced migration and invasion
same,migration of MCF-7 breast cancer cells,[3]; listed as βIIPKC inhibitor,reduced migration and invasion
same,migration of MCF-7 breast cancer cells,[3]; listed as βIIV5-3 peptide,reduced
same,invasion of MCF-7 cells through a HUVEC monolayer,[2],reduced migration and invasion
same,migration of JC cells,JC cells,reduced
same,migration of MDA-MB-231 breast cancer cells,[4]; listed as βIIPKC inhibitor,reduced migration and invasion
same,migration of MDA-MB-231 breast cancer cells,[4]; listed as βIIV5-3 peptide,reduced
same,reduction of βIIPKC translocation,βIIPKC,did not significantly reduce
same,reduction in the number of cells at the primary tumor site,4T1 tumor cells,no reduction
same,effect on lung metastasis compared to control animals (in words),[5],less pronounced effect
same,effect on lung metastasis compared to control animals (in words),[5]; listed as βPKC inhibitor,about half
